Assay results taken from patent US8354398B2, “Substituted isoxazole compounds” (Bristol-Myers Squibb Company, priority 2009, dated 2013).
Structures can show the parent of a compound that is named as a salt.

Columns and labels:
S1P1 [1] = target: T1, S1P1 (Homo sapiens, UniProt P21453); test: S1P1 Binding Assay (33P-S1P ligand competition, membranes from CHO cells); parameters: expressed in transfected cells; host or cells: CHO cells; settings: membranes of CHO cells expressing human S1P1; 0.03 nM 33P-S1P; 60 min room temperature
T1 sequence (P21453 whole entry): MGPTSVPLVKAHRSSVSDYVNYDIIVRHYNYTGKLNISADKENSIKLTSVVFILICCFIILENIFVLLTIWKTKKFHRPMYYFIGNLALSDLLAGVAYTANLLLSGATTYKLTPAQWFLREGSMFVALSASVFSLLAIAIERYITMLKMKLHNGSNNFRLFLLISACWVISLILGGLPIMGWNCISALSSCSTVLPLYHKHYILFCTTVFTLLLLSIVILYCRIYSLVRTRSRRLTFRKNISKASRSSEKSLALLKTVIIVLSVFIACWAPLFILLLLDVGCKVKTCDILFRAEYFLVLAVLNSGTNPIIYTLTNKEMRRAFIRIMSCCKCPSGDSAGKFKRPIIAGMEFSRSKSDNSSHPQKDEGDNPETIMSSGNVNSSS
Description: Membranes were prepared from CHO cells expressing human S1P1. Cells were dissociated in buffer containing 20 mM HEPES, pH 7.5, 50 mM NaCl, 2 mM EDTA and Protease Inhibitor cocktail (Roche), and disrupted on ice using the Polytron homogenizer. The homogenate was centrifuged at 20,000 rpm (48,000 g) and the supernatant was discarded. The membrane pellets were resuspended in buffer containing 50 mM HEPES, pH 7.5, 100 mM NaCl, 1 mM MgCl2, 2 mM EDTA and stored in aliquots at −80° C. after protein concentration determination.
Membranes (2 μg/well) and 0.03 nM final concentration of ^33P-S1P ligand (1 mCi/ml, American Radiolabeled Chemicals) were added to the compound plates. Binding was performed for 60 min at room temperature, terminated by collecting the membranes onto GF/B filter plates, and radioactivity was measured by TOPCOUNT®. The competition data of the test compounds over a range of concentrations was plotted as percentage inhibition of radioligand specific binding. The IC50 is defined as the concentration of competing ligand needed to reduce specific binding by 50%.
Compounds of the present invention and Comparative Compound A were tested in the S1P1 binding assay described hereinabove and the results rounded to two digits, shown in Table A were obtained. In some instances, the value is an average of multiple experiments where N is the number of experiments conducted that provided satisfactory dose response curves. When more than one batch of an example was tested, the value presented is from the batch which allowed a comparison of GTPγS S1P1 and GTPγS S1P3 in Method A (Data shown in Table B). Data was not averaged across different batches of an example compound.

S1P3 [2] = target: T2, S1P3 (Homo sapiens, UniProt Q99500); test: Method B: Receptor [35S] GTPγS SPA Binding Assay, membranes from S1P3 transfected CHO cells; format: biochemical; parameters: expressed in transfected cells; host or cells: CHO cells; settings: S1P3 transfected CHO cell membranes, NC = a satisfactory dose response curve was not obtained
Description: (§1) Membranes prepared from S1P1 or S1P3 transfected CHO cells (2 μg protein) were incubated in 96-well white plates (CORNING® 3693) with test compounds diluted in DMSO, in 50 μl of reaction mixture containing 7.5 μl WGA-PVT beads (20 mg/ml), and 5 μM GDP, 20 mM HEPES pH 7.4, 100 mM NaCl, 1 mM EDTA, 5 mM MgCl2, 10 μg/ml saponin, 0.1% BSA, and 1 μM leupeptin. The assay was initiated with the addition of 25 μl of 0.2 nM [^35S]-GTPγS (1250 Ci/mmol; NEN) in assay buffer. After 90 min incubation at room temperature, spin the plate at 1000 rpm for 5 min. The bound radionuclides were measured at TOPCOUNT®, expressed as % response relative to S1P (1 μM) activation. Data was analyzed using the four parameter logistic equation in Excel. The four parameters in the equation, Y=A+((B−A)/(1+((EC50/X)^D))), are described as following: A is the Y value (agonist activity) at the bottom plateau; B is the Y value at the top plateau; EC50 is the X value (agonist concentration) when the response is halfway between bottom and top; D is Hill coefficient. Curves were not generated for compounds having Ymax values were below 50%.
(§2) Compounds of the present invention and Comparative Compound A were tested in the Receptor [^35S] GTPγS Binding Assays (Method A) and Receptor [35S] In some instances, the value is an average of multiple experiments where N is the number of experiments conducted that provided satisfactory dose response curves. When more than one batch of an example was tested, the value presented is from a batch which allowed a comparison of GTPγS S1P1 and GTPγS S1P3 in which the most number of experiments were performed. Preferably, the same batch was examined in Method A and Method B. Data was not averaged across different batches of an example compound.
Target sequence in this assay (Q99500 whole entry, species assumed): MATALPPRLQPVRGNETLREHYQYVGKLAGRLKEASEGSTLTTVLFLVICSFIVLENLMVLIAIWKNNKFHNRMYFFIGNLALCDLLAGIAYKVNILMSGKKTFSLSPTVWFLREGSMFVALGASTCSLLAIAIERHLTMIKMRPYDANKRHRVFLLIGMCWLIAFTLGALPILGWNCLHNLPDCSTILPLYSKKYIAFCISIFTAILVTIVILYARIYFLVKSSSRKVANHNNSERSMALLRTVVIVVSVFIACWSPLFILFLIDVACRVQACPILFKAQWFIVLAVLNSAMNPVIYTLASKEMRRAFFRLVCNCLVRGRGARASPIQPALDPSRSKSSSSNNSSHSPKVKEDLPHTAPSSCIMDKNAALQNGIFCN

S1P1 [3] = target: T1, S1P1; test: Method A: Receptor [35S] GTPγS Binding Assay, membranes from S1P1/CHO cells; format: biochemical; parameters: expressed in transfected cells; host or cells: S1P1/CHO cells; settings: for EC50: Method A, S1P1/CHO cell membranes; for GTPγS S1P3/S1P1 (Method A): ratio of GTPγS S1P3 EC50 to GTPγS S1P1 EC50, Method A
Description: (§3) Compounds were loaded in a 384 Falcon v-bottom plate (0.5 μl/well in a 3-fold dilution). Membranes prepared from S1P1/CHO cells or EDG3-Ga15-bla HEK293T cells were added to the compound plate (40 μl/well, final protein […]) with MULTIDROP®. [^35S]GTP (1250 Ci/mmol, Perkin Elmer) was diluted in assay buffer: 20 mM HEPES, pH7.5, 10 mM MgCl2, 150 mM NaCl, 1 mM EGTA, 1 mM DTT, 10 μM GDP, 0.1% fatty acid free BSA, and 10 mg/ml Saponin to 0.4 nM. 40 μl of the [^35S] GTP solution was added to the compound plate with a final concentration of 0.2 nM. The reaction was kept at room temperature for 45 min. At the end of incubation, all the mixtures in the compound plate were transferred to a 384 well FB filter plates via GPCR robot system. The filter plate was washed with water 4 times by using the modified manifold Embla plate washer and dried at 60° C. for 45 min. 30 μl of MicroScint 20 scintillation fluid was added to each well for counting at Packard TOPCOUNT®. EC50 is defined as the agonist concentration that corresponds to 50% of the Ymax (maximal response) obtained for each individual compound tested.
as §2

S1P1 [4] = target: T1, S1P1; test: Method B: Receptor [35S] GTPγS SPA Binding Assay, membranes from S1P1 transfected CHO cells; format: biochemical; parameters: expressed in transfected cells; host or cells: S1P1/CHO cells; settings: for EC50: Method B SPA, S1P1 transfected CHO cell membranes, NC = a satisfactory dose response curve was not obtained; for GTPγS S1P3/S1P1 (Method B): ratio of GTPγS S1P3 EC50 to GTPγS S1P1 EC50, Method B
Description: as §1, §2

S1P3 [5] = target: T2, S1P3; test: Method A: Receptor [35S] GTPγS Binding Assay, membranes from EDG3-Ga15-bla HEK293T cells; format: biochemical; parameters: expressed in transfected cells; host or cells: EDG3-Ga15-bla HEK293T cells; settings: EDG3-Ga15-bla HEK293T cell membranes
Description: as §3, §2
Target sequence in this assay (Q99500 whole entry): as the sequence (Q99500 whole entry, species assumed) above

SMILES | IC50 (S1P1 [1]) | EC50 (S1P3 [2]) | EC50 (S1P1 [3]) | GTPγS S1P3/S1P1 (Method A) (S1P1 [3]) | EC50 (S1P1 [4]) | GTPγS S1P3/S1P1 (Method B) (S1P1 [4]) | EC50 (S1P3 [5])
O=C(O)C1CN(Cc2ccc(-c3noc(-c4noc(-c5ccccc5)c4-c4ccccc4)n3)cc2)C1 [Example 17, 1-(4-(5-(4,5-diphenylisoxazol-3-yl)-1,2,4-oxadiazol-3-yl)benzyl)azetidine-3-carboxylic acid, 2,2,2-trifluoroacetic acid salt] | 0.063 nM | 13.5 nM | 0.73 nM | 27 | 0.12 nM | 112 | 20 nM
O=C(O)C1CN(Cc2ccc(-c3noc(-c4cc(-c5ccccc5)c(C(F)(F)F)s4)n3)cc2)C1 [Comp. A, 1-(4-(5-(4-Phenyl-5-(trifluoromethyl)thiophen-2-yl)-1,2,4-oxadiazol-3-yl)benzyl)azetidine-3-carboxylic acid, reference compound] | 2.5 nM | 20 nM | 84 nM | 1.2 | 0.25 nM | 78 | 97 nM
CC(C)(C)c1c(-c2nc(-c3ccc(CN4CC(C(=O)O)C4)cc3)no2)noc1-c1ccccc1 [Example 7, 1-(4-(5-(4-tert-Butyl-5-phenylisoxazol-3-yl)-1,2,4-oxadiazol-3-yl)benzyl)-azetidine-3-carboxylic acid, 2-2-2-trifluoroacetic acid salt] | 0.58 nM | 8100 nM | 6.6 nM | 560 | 1.5 nM | 5,400 | 3700 nM
CCCc1c(-c2nc(-c3ccc(CN4CC(C(=O)O)C4)cc3)no2)noc1CC(C)C [Example 18, 1-(4-(5-(5-Isobutyl-4-propylisoxazol-3-yl)-1,2,4-oxadiazol-3-yl)benzyl)azetidine-3-carboxylic acid, TFA] | 0.14 nM | 21 nM | 1 nM |  | 0.015 nM | 1,400 | 

Continued, values first:

IC50 (S1P1 [1]) | EC50 (S1P3 [2]) | EC50 (S1P1 [3]) | GTPγS S1P3/S1P1 (Method A) (S1P1 [3]) | EC50 (S1P1 [4]) | GTPγS S1P3/S1P1 (Method B) (S1P1 [4]) | EC50 (S1P3 [5]) | SMILES
0.14 nM | 910 nM | 3.1 nM | 810 | 0.14 nM | 6,500 | 2500 nM | CC(F)(F)c1c(-c2nc(-c3ccc(CN4CC(C(=O)O)C4)cc3)no2)noc1-c1ccccc1 [Example 9, 1-(4-(5-(4-(1,1-Difluoroethyl)-5-phenylisoxazol-3-yl)-1,2,4-oxadiazol-3-yl)benzyl)azetidine-3-carboxylic acid, 2,2,2-trifluoroacetic acid salt]
0.078 nM | 1600 nM |  |  | 0.15 nM | 11,000 | 3600 nM | O=C(O)C1CN(Cc2ccc(-c3noc(-c4onc(-c5ccccc5)c4C(F)F)n3)cc2)C1 [Example 12, 1-(4-(5-(4-(Difluoromethyl)-3-phenylisoxazol-5-yl)-1,2,4-oxadiazol-3-yl)benzyl)azetidine-3-carboxylic acid, 2,2,2-trifluoroacetic acid salt]
0.043 nM |  | 5.6 nM | 75 | 0.22 nM |  | 420 nM | O=C(O)C1CN(Cc2ccc(-c3noc(-c4noc(-c5ccccc5)c4C4CC4)n3)cc2)C1 [Example 6, 1-(4-(5-(4-Cyclopropyl-5-phenylisoxazol-3-yl)-1,2,4-oxadiazol-3-yl)benzyl)-azetidine-3-carboxylic acid, 2,2,2-trifluoroacetic acid salt]
0.055 nM |  | 0.84 nM | 230 | 0.055 nM |  | 190 nM | CCC(F)(F)c1c(-c2nc(-c3ccc(CN4CC(C(=O)O)C4)cc3)no2)noc1-c1ccccc1 [Example 10, 1-(4-(5-(4-(1,1-Difluoropropyl)-5-phenylisoxazol-3-yl)-1,2,4-oxadiazol-3-yl)benzyl)azetidine-3-carboxylic acid, trifluoroacetic acid salt]
0.13 nM | 50 nM | 0.47 nM |  | 0.017 nM | 2,900 |  | CCCc1c(-c2ccccc2)noc1-c1nc(-c2ccc(CN3CC(C(=O)O)C3)cc2)no1 [Example 11, 1-(4-(5-(3-Phenyl-4-propylisoxazol-5-yl)-1,2,4-oxadiazol-3-yl)benzyl)azetidine-3-carboxylic acid, 2,2,2-trifluoroacetic acid salt]
